The test system of one data set is porcine gastric mucine. The experiment in a line: "In vitro" mucolytic activity (viscoelasticity of porcine gastric mucine). Type of data set: biochemical. The settings on record: 0.2 ml of 10% DMSO solution of compound in 1.8 ml of 6% mucine, 25° C., 30 minutes, 0.075 Hz. How it is done: Control samples were similarly added with the vehicle only. After incubation at 25° C. for 30 minutes, the analysis of the rheologic characteristics was carried out by means of Contraves Low-Shear 30 sinus viscosimeter endowed with oscillating device for the study of the viscoelasticity. The dynamic measurements of the viscoelasticity were carried out at a single frequency (0.075 Hz), using an appropriate concentrical cylinder measurement system, particularly suited for bronchial mucus (Contraves MS-LS 1-1).
The rheogramm was recorded on X/Y Rikadenki 11T recorder and the […] determination was carried out by means of vectorial calculation.
The percent decreases versus control samples, reported in Table 1, were determined from the means of the values of said parameters (at least 7 replications per sample).

Another data set relates to respiratory tract. The experiment in a line: Mucosecretodynamic activity, "in vivo" fluorescein test. The settings on record: Mus musculus, po; male mice, p.o., 90 minutes before i.v. fluorescein; excretion increase versus controls. As to the method: The compounds, dissolved or suspended in 20 ml/kg of a 0.2% Tween® 80 aqueous suspension, were administered orally 90 minutes before the intravenous injection of 1% (5 ml/kg) fluorescein. Animals treated p.o. with the only vehicle were used as a control group. After 30 minutes from the fluorescein injection the animals were killed and subjected to incannulation of the trachea. Then the respiratory tract was washed and the spectrophotometric dosage of the fluorescein was carried out against phosphate buffer on the so collected eluate, suitably diluted with phosphate buffer and centrifugated.
The amount of fluorescein was determined by means of a calibration curve prepared in the same experimental conditions and the excretion expressed as ng/hour/10 g body weight. For each experimental session the percent increases of excretion versus controls were calculated.

Data set [1] can be described thus: Toxicity after single administration (acute toxicity, oral). The settings on record: mouse, in vivo, mice, p.o., death-rate after 7 days, read-out: Acute toxicity LD50 approx. How it is done: IVA:NMRI (SPF) mice, fasted for 18 hours before treatment with water ad libitum, have been used. The compounds, dissolved or suspended in a 0.2% Tween® 80 aqueous solution, have been administered orally, at constant concentration (10%). According to the death-rate observed after 7 days from treatment, the approximate LD50 values, reported in Table 1, have been interpolated on Probits chart.

Where only a bound is given, the exact number is not on record here.

Consider `O=C(O)c1ccccc1C(=O)NC1CCSC1=O` (centres unmarked) [II, 2-[[N-(tetrahydro-2-oxo-3-thienyl)amino]carbonyl]benzoic acid], for which, in the data set with porcine gastric mucine, the “"in vitro" % decrease elasticity (G')” value was found to be 23% and the “"in vitro" % decrease viscosity (.eta.)” value worked out at 45%. This compound also registered an ED50 with respiratory tract of 340 mg/kg. Besides, the LD50 at 168 h in data set [1] is over 4000 mg/kg.

With `O=C1SCCC1NC(=O)C1C2C=CC(C2)C1C(=O)O` (centres unmarked) [IV, 3-[[N-(Tetrahydro-2-oxo-3-thienyl)amino]-carbonyl]bicyclo[2,2,1]-ept-5-ene-2-carboxylic acid], in the data set on porcine gastric mucine, the “"in vitro" % decrease elasticity (G')” value was determined as 32% and the “"in vitro" % decrease viscosity (.eta.)” value is on record as 43%. In the data set on respiratory tract, this compound had an ED50 of 25 mg/kg. In addition, the 50% lethal dose (LD50) at 168 h in data set [1] was over 4000 mg/kg.

For the compound `CC(=O)N[C@@H](CS)C(=O)O` [N-acetyl-L-cysteine, N--acetyl-L-cysteine, reference compound], in the data set on porcine gastric mucine, the “"in vitro" % decrease elasticity (G')” value is listed as 39% and the “"in vitro" % decrease viscosity (.eta.)” value is recorded as 53%. In the data set with respiratory tract, this compound returned an ED50 of 1300 mg/kg. Further, the LD50 at 168 h in data set [1] was 4400 mg/kg.

Consider `NC(CSCC(=O)O)C(=O)O` (centres unmarked) [S-carboxymethyl-cysteine, S--carboxymethyl-cysteine, reference compound], for which the ED50 in the data set on respiratory tract is 1900 mg/kg. Also, the 50% lethal dose (LD50) at 168 h in data set [1] is over 4000 mg/kg.
